Assay results from PMC2873402, “Discovery of High-Affinity Protein Binding Ligands – Backwards” (PLoS ONE, 2010).
“Also recorded” adds a separate entry of the source. Bridge positions count the residues as written; N and C are the ends. Ends that are not written are not given here. I, II: the chains in the order shown. * marks the point of attachment. StBu = CC(C)(C)S*

Columns and labels:
Format in all cases: binding
AKT1 [1] = biological target: T1, AKT1 (Homo sapiens, UniProt P31749); experiment: IP of 35S-labeled AKT1, scintillation counting; set-up: N-terminal vector leader of pEXP5-NT (6xHis + TEV site by own knowledge of the vector); made in house; host or cells: Expressway Mini Cell-Free Expression System (in vitro translation); settings: AKT1 approximately 3% of total protein
T1 sequence (P31749 whole entry): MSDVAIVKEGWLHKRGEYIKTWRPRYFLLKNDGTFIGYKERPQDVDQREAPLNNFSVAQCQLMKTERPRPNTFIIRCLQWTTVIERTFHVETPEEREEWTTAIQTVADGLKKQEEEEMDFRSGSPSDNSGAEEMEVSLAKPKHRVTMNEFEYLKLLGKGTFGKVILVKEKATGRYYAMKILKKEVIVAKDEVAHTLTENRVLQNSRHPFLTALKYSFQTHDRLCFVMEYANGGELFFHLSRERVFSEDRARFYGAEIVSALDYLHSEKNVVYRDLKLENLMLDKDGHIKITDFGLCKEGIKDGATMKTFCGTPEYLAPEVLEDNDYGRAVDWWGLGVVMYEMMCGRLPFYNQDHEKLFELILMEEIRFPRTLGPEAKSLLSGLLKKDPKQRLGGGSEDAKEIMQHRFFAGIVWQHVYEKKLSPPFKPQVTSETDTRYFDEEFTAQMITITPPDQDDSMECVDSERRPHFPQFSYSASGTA
Method: In order to validate the Kd determined by SPR, an additional IP was performed using ^35S-labeled AKT1 produced by in vitro translation (IVT). The translation mixture contained 12 µg of AKT1 in the presence of 400 µg of total protein and a concentration series of ^35S-labeled AKT1 from 41.5 nM to 80 pM was prepared by dilution of the 35-S-labeled AKT1 IVT mixture. The synbody was then used to precipitate the ^35S-labeled AKT1 in the same manner as before. Bound AKT1 was quantified using liquid scintillation counting and plotted as a function of AKT1 concentration.
AKT1 DNA was assembled by ligation of 42-bp oligonucleotides by PCR according to a procedure developed internally (Borovkov, et al. submitted). The PCR product was cloned into pEXP5-NT topo expression vector (Life Technologies), purified using a Qaigen PCR purification kit, and quantified by Nanodrop spectrophotometer (Thermo Scientific). […]
For all IP experiments, either a 1 µM or 250 nM solution of biotin-conjugated synbody was captured on 20 µL of streptavidin coated paramagnetic M-280 Dynabeads (Life Technologies) according to the manufacturers protocol. […] The samples were analyzed by SDS-PAGE gel with Western Blot detection using the appropriate antibody and imaged on a GE Healthcare Typhoon Trio.

AKT3 = experiment: IP of AKT isoforms spiked into A549 lysate: AKT3; settings: 250 ng of each isoform in 500 µg A549 lysate, Western Blot
Method: (§1) This apparent specificity was investigated further by performing an IP using 250 ng of each isoform of AKT spiked into 500 µg of A-549 cell lysate.
(§2) For all IP experiments, either a 1 µM or 250 nM solution of biotin-conjugated synbody was captured on 20 µL of streptavidin coated paramagnetic M-280 Dynabeads (Life Technologies) according to the manufacturers protocol. Synbody coated beads were washed five times with 1 mL of 100 mM phosphate buffered saline containing 0.05% Tween-20 (PBST) and incubated overnight at 4°C with shaking in the desired amount of target protein in A549 cell lysate. For Kd determination experiments, serial dilutions of AKT1 or ABL1 were prepared in binding buffer. After binding, beads were washed five times with 1 mL of PBST and heated at 70°C in 20 µL of 1× LDS loading buffer (Invitrogen) for 10 minutes. The samples were analyzed by SDS-PAGE gel with Western Blot detection using the appropriate antibody and imaged on a GE Healthcare Typhoon Trio.

AKT2 = experiment: IP of AKT isoforms spiked into A549 lysate: AKT2; settings: 250 ng of each isoform in 500 µg A549 lysate, Western Blot
Method: as §1, §2

AKT1 [2] = biological target: T1, AKT1; experiment: IP of AKT1 spiked into A549 cell lysate, Western Blot; set-up: purchased Life Technologies; settings: 200 ng AKT1 (33.2 nM)
Method: As a preliminary test of specificity, 200 ng of AKT1 (33.2 nM) was spiked into increasing amounts of cell lysate prepared from un-stimulated A549 lung epithelial cells and streptavidin beads coated with 25 pmols of synbody (7.6∶1 synbody-to-AKT1 ratio) were used to pull down AKT1 using the same IP procedure and Western Blot protocol as before.
as §2

[3] = test system: 8,303 recombinant human proteins; experiment: Protein array (ProtoArray) screen of synbodies; settings: 200 nM biotin synbody, Alexa-555 streptavidin detection, background-subtracted fluorescence
Text: To test this approach, a candidate synbody was constructed using two peptides, […] and […], referred to as peptides 1 and 2, respectively. The sequences of the first 17 aa of these peptides were generated using a random number generator and three constant positions on the C-terminus that served as a spacer between the linker scaffold and the active portion of each peptide. A divergent synthetic method was used in which peptide 1 was synthesized from C to N terminus from the α-amine of lysine and peptide 2 was synthesized from the ε-amine of lysine (Figure 2A, Materials and Methods S1, Figure S1). The synbody was tagged on the C-terminus with biotin and screened against a Life Technologies ProtoArray™. ProtoArrays are nitrocellulose coated slides onto which 8,303 recombinant human proteins have been spotted. After a 2-hour incubation, the array was washed and bound synbody was detected using fluorescently labeled streptavidin. […]
Synbodies were screened on an Invitrogen ProtoArray™ (Life Technologies, Carlsbad, CA, USA) detected with Alexa-555 labeled streptavidin (Life Technologies), and scanned using a Perkin Elmer ProScan Array HTP. The spots were analyzed using GenePix Pro (Molecular Devices, Sunnyvale, CA, USA) and data were processed using Genespring GX (Agilent Technologies, Santa Clara, CA, USA). […]

Question: “I: AHKVVPQRQIRHAYNRYGSGKC(StBu)-NH2 / II: FRGWAHIFFGPHVIYRGGSG (amide I:21-II:C) [synbody]” was tested. Which “specificity for AKT1 in IVT lysate” value (AKT1 [1]) did it give?
Answer: The value was “specifically binds AKT1 from a complex background”.

Question: And the “IP of AKT3 (isoform selectivity)” value (AKT3)?
Answer: Its value is “relatively little”.

Question: And the “IP of AKT2 (isoform selectivity)” value (AKT2)?
Answer: Its value is “relatively little”.

Question: What about the “excess cell extract in the presence of which AKT1 is precipitated” value (AKT1 [2]; 25 pmols synbody (7.6:1), A549 lysate) of the same substance?
Answer: Its value is 2,500 fold excess.

Question: What about the “precipitation of AKT1 from A549 lysate” value (AKT1 [2]; 25 pmols synbody (7.6:1 synbody-to-AKT1), increasing A549 lysate) of the same substance?
Answer: The value was “successfully pulled AKT1 out of the cell lysate in the presence of an increasing concentration of A549 lysate with little reduction in AKT1 signal intensity”.

Question: What about the “proteins bound on protein array” value [3] of the same substance?
Answer: The value was “bound few proteins on the array; also recorded: bound several different proteins including PCCA, CASZ1, GRP58, NOB1, and AKT1”.
